System: Acinetobacter baumannii ATCC17961
Test: Antimicrobial susceptibility testing: 90% growth inhibitory concentration (IC90) determination
Assay type: cell-based
Conditions: Acinetobacter baumannii, ATCC17961, 16 h, 90% growth inhibitory concentration against Acinetobacter baumannii ATCC17961, Iso-Sensitest broth, OD 600 nm over 16 h; read-out: ATCC 17961 IC90
How it was run: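 OD600 monitored each minute over 16 h at 35±2° C for bacteria (~5×10^5 CFU/mL final) in Iso-Sensitest medium with 10-point twofold compound series (e.g. 10-0.0195 μM final). Concentration giving 90% growth inhibition in log phase reported as IC90.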

Row | IC90 | Structure (SMILES)
1 | 744 nM | Cn1c(-c2cn(-c3cc4nn(CC(N)=O)cc4cn3)nc2C(F)(F)F)cnc1C(=O)Nc1ccc(C(=O)N2CCN(C(=O)[C@H]3CC[N@+](CC(=O)O)(CC4CNC4)CC3)CC2)c(Cl)c1 [Example 149, cis-2-[4-[4-[4-[[5-[1-[2-(2-amino-2-keto-ethyl)pyrazolo[4,3-c]pyridin-6-yl]-3-(trifluoromethyl)pyrazol-4-yl]-1-methyl-imidazole-2-carbonyl]amino]-2-chloro-benzoyl]piperazine-1-carbonyl]-1-(azetidin-3-ylmethyl)piperidin-1-ium-1-yl]acetic acid. 1:1 2,2,2-trifluoroacetate]
2 | 217 nM | C[C@@H](O)c1cc2nc(-n3cc(-c4cnc(C(=O)Nc5ccc(C(=O)N6CCN(C(=O)[C@H]7CC[N@+](CC(=O)O)(CC8CNC8)CC7)CC6)c(Cl)c5)n4C)c(C(F)(F)F)n3)ccc2[nH]1 [Example 150, cis-2-[1-(azetidin-3-ylmethyl)-4-[4-[2-chloro-4-[[5-[1-[2-[(1R)-1-hydroxyethyl]-1H-pyrrolo[3,2-b]pyridin-5-yl]-3-(trifluoromethyl)pyrazol-4-yl]-1-methyl-imidazole-2-carbonyl]amino]benzoyl]piperazine-1-carbonyl]piperidin-1-ium-1-yl]acetic acid;formate]
3 | 403 nM | Cn1c(-c2cn(-c3ccc4[nH]c(CO)cc4n3)nc2C(F)(F)F)cnc1C(=O)Nc1ccc(C(=O)N2CCN(C(=O)[C@H]3CC[N@+](CC(=O)O)(CC4CNC4)CC3)CC2)c(F)c1 [Example 151, cis-2-[1-(azetidin-3-ylmethyl)-4-[4-[2-fluoro-4-[[1-methyl-5-[1-(2-methylol-1H-pyrrolo[3,2-b]pyridin-5-yl)-3-(trifluoromethyl)pyrazol-4-yl]imidazole-2-carbonyl]amino]benzoyl]piperazine-1-carbonyl]piperidin-1-ium-1-yl]acetic acid. 1:1 2,2,2-trifluoroacetate]
4 | 172 nM | Cn1c(-c2cn(-c3cc4[nH]c(CCO)cc4cn3)nc2C(F)(F)F)cnc1C(=O)Nc1ccc(C(=O)N2CCN(C(=O)[C@H]3CC[N@+](CC(=O)O)(CC4CNC4)CC3)CC2)c(Cl)c1 [Example 154, cis-2-[1-(azetidin-3-ylmethyl)-4-[4-[2-chloro-4-[[5-[1-[2-(2-hydroxyethyl)-1H-pyrrolo[3,2-c]pyridin-6-yl]-3-(trifluoromethyl)pyrazol-4-yl]-1-methyl-imidazole-2-carbonyl]amino]benzoyl]piperazine-1-carbonyl]piperidin-1-ium-1-yl]acetic acid;formate]
5 | 390 nM | CC(Cn1ccc2nc(-n3cc(-c4cnc(C(=O)Nc5ccc(C(=O)N6CCN(C(=O)[C@H]7CC[N@+](CC(=O)O)(CC8CNC8)CC7)CC6)c(Cl)c5)n4C)c(C(F)(F)F)n3)ccc21)C(N)=O (stereo partly drawn) [Example 161, 2-[4-[4-[4-[[5-[1-[1-(3-amino-2-methyl-3-oxo-propyl)pyrrolo[3,2-b]pyridin-5-yl]-3-(trifluoromethyl)pyrazol-4-yl]-1-methyl-imidazole-2-carbonyl]amino]-2-chloro-benzoyl]piperazine-1-carbonyl]-1-(azetidin-3-ylmethyl)piperidin-1-ium-1-yl]acetic acid;2,2,2-trifluoroacetate]

More lines, now with the values behind:

Row | Structure (SMILES) | IC90
6 | Cn1c(-c2cn(-c3cc4[nH]cc(C(=O)N5CCNCC5)c4cn3)nc2C(F)(F)F)cnc1C(=O)Nc1ccc(C(=O)N2CCN(C(=O)[C@H]3CC[N@+](CC(=O)O)(CC4CNC4)CC3)CC2)c(Cl)c1 [Example 147, cis-2-[1-(azetidin-3-ylmethyl)-4-[4-[2-chloro-4-[[1-methyl-5-[1-[3-(piperazine-1-carbonyl)-1H-pyrrolo[3,2-c]pyridin-6-yl]-4-(trifluoromethyl)pyrazol-4-yl]imidazole-2-carbonyl]amino]benzoyl]piperazine-1-carbonyl]piperidin-1-ium-1-yl]acetic acid. 1:1 2,2,2-trifluoroacetate] | 181 nM
7 | CN1CCN(C(=O)c2c[nH]c3cc(-n4cc(-c5cnc(C(=O)Nc6ccc(C(=O)N7CCN(C(=O)[C@H]8CC[N@+](CC(=O)O)(CC9CNC9)CC8)CC7)c(Cl)c6)n5C)c(C(F)(F)F)n4)ncc23)CC1 [Example 148, cis-2-[1-(azetidin-3-ylmethyl)-4-[4-[2-chloro-4-[[1-methyl-5-[1-[3-(4-methylpiperazine-1-carbonyl)-1H-pyrrolo[3,2-c]pyridin-6-yl]-3-(trifluoromethyl)pyrazol-4-yl]imidazole-2-carbonyl]amino]benzoyl]piperazine-1-carbonyl]piperidin-1-ium-1-yl]acetic acid. 1:1 2,2,2-trifluoroacetate] | 349 nM
8 | Cc1cc(NC(=O)c2ncc(-c3cn(-c4ccc(N)cc4F)nc3C(F)(F)F)n2C)ccc1C(=O)N1CCN(C(=O)[C@H]2CC[N@+](CC(=O)O)(CC3CNC3)CC2)CC1 [Example 152, cis-2-[4-[4-[4-[[5-[1-(4-amino-2-fluoro-phenyl)-3-(trifluoromethyl)pyrazol-4-yl]-1-methyl-imidazole-2-carbonyl]amino]-2-methyl-benzoyl]piperazine-1-carbonyl]-1-(azetidin-3-ylmethyl)piperidin-1-ium-1-yl]acetic acid. 1:1 2,2,2-trifluoroacetate] | 421 nM
9 | Cc1cc(NC(=O)c2ncc(-c3cn(-c4ccc5[nH]c(CO)cc5n4)nc3C(F)(F)F)n2C)ccc1C(=O)N1CCN(C(=O)[C@H]2CC[N@+](CC(=O)O)(CC3CNC3)CC2)CC1 [Example 153, cis-2-[1-(azetidin-3-ylmethyl)-4-[4-[2-methyl-4-[[1-methyl-5-[1-(2-methylol-1H-pyrrolo[3,2-b]pyridin-5-yl)-3-(trifluoromethyl)pyrazol-4-yl]imidazole-2-carbonyl]amino]benzoyl]piperazine-1-carbonyl]piperidin-1-ium-1-yl]acetic acid. 1:1 2,2,2-trifluoroacetate] | 384 nM
10 | Cn1c(-c2cn(-c3cc4[nH]cc(C(=O)N5CC[C@H](O)C5)c4cn3)nc2C(F)(F)F)cnc1C(=O)Nc1ccc(C(=O)N2CCN(C(=O)[C@H]3CC[N@+](CC(=O)O)(CC4CNC4)CC3)CC2)c(Cl)c1 [Example 155, cis-2-[1-(azetidin-3-ylmethyl)-4-[4-[2-chloro-4-[[5-[1-[3-[(3S)-3-hydroxypyrrolidine-1-carbonyl]-1H-pyrrolo[3,2-c]pyridin-6-yl]-3-(trifluoromethyl)pyrazol-4-yl]-1-methyl-imidazole-2-carbonyl]amino]benzoyl]piperazine-1-carbonyl]piperidin-1-ium-1-yl]acetic acid. 1:1 2,2,2-trifluoroacetate] | 329 nM
11 | CNC(=O)c1c[nH]c2cc(-n3cc(-c4cnc(C(=O)Nc5ccc(C(=O)N6CCN(C(=O)[C@H]7CC[N@+](CC(=O)O)(CC8CNC8)CC7)CC6)c(Cl)c5)n4C)c(C(F)(F)F)n3)ncc12 [Example 156, cis-2-[1-(azetidin-3-ylmethyl)-4-[4-[2-chloro-4-[[1-methyl-5-[1-[3-(methylcarbamoyl)-1H-pyrrolo[3,2-c]pyridin-6-yl]-3-(trifluoromethyl)pyrazol-4-yl]imidazole-2-carbonyl]amino]benzoyl]piperazine-1-carbonyl]piperidin-1-ium-1-yl]acetic acid. 1:1 2,2,2-trifluoroacetate] | 156 nM
12 | Cn1c(-c2cn(-c3cc4[nH]cc(C(N)=O)c4cn3)nc2C(F)(F)F)cnc1C(=O)Nc1ccc(C(=O)N2CCN(C(=O)[C@H]3CC[N@+](CC(=O)O)(CC4CNC4)CC3)CC2)c(Cl)c1 [Example 157, cis-2-[1-(azetidin-3-ylmethyl)-4-[4-[4-[[5-[1-(3-carbamoyl-1H-pyrrolo[3,2-c]pyridin-6-yl)-3-(trifluoromethyl)pyrazol-4-yl]-1-methyl-imidazole-2-carbonyl]amino]-2-chloro-benzoyl]piperazine-1-carbonyl]piperidin-1-ium-1-yl]acetic acid. 1:1 2,2,2-trifluoroacetate] | 368 nM
13 | CN(C)S(=O)(=O)n1c(CCO)cc2cnc(-n3cc(-c4cnc(C(=O)Nc5ccc(C(=O)N6CCN(C(=O)[C@H]7CC[N@+](CC(=O)O)(CC8CNC8)CC7)CC6)c(Cl)c5)n4C)c(C(F)(F)F)n3)cc21 [Example 158, cis-2-[1-(azetidin-3-ylmethyl)-4-[4-[2-chloro-4-[[5-[1-[1-(dimethylsulfamoyl)-2-(2-hydroxyethyl)pyrrolo[3,2-c]pyridin-6-yl]-3-(trifluoromethyl)pyrazol-4-yl]-1-methyl-imidazole-2-carbonyl]amino]benzoyl]piperazine-1-carbonyl]piperidin-1-ium-1-yl]acetic acid;formate] | 783 nM
14 | Cn1c(-c2cn(-c3ccc(N)cc3F)nc2C(F)(F)F)cnc1C(=O)Nc1ccc(C(=O)N2CCN(C(=O)C3CC[N+](CCCO)(CC(=O)O)CC3)CC2)c(Cl)c1 (stereo not drawn) [Example 159, 2-[4-[4-[4-[[5-[1-(4-amino-2-fluoro-phenyl)-3-(trifluoromethyl)pyrazol-4-yl]-1-methyl-imidazole-2-carbonyl]amino]-2-chloro-benzoyl]piperazine-1-carbonyl]-1-(3-hydroxypropyl)piperidin-1-ium-1-yl]acetic acid. 1:1 2,2,2-trifluoroacetate] | 647 nM
15 | Cn1c(-c2cn(-c3ccc4[nH]c(C[C@H](O)CO)cc4n3)nc2C(F)(F)F)cnc1C(=O)Nc1ccc(C(=O)N2CCN(C(=O)[C@H]3CC[N@+](CC(=O)O)(CC4CNC4)CC3)CC2)c(Cl)c1 [Example 160, cis-2-[1-(azetidin-3-ylmethyl)-4-[4-[2-chloro-4-[[5-[1-[2-[(2S)-2,3-dihydroxypropyl]-1H-pyrrolo[3,2-b]pyridin-5-yl]-3-(trifluoromethyl)pyrazol-4-yl]-1-methyl-imidazole-2-carbonyl]amino]benzoyl]piperazine-1-carbonyl]piperidin-1-ium-1-yl]acetic acid;formate] | 474 nM

Reference: patent US20250179066A1, “ZWITTERIONIC ANTIBACTERIAL COMPOUNDS” (Hoffmann-La Roche Inc., priority 2022, published 2025)
